Values of other authors, collected in patent publication US20110142971A1, “USE OF AN ONION EXTRACT FOR MAKING A COMPOSITION TO CONTROL WEIGHT GAIN” (priority 2005, published 2011).

Legend:
pancreatic lipase = molecular target: T1, pancreatic lipase (Homo sapiens, UniProt P16233); conditions: human species
T1 construct: host or cells: human subjects (in vivo, digestive tract)
T1 sequence (P16233 17-465): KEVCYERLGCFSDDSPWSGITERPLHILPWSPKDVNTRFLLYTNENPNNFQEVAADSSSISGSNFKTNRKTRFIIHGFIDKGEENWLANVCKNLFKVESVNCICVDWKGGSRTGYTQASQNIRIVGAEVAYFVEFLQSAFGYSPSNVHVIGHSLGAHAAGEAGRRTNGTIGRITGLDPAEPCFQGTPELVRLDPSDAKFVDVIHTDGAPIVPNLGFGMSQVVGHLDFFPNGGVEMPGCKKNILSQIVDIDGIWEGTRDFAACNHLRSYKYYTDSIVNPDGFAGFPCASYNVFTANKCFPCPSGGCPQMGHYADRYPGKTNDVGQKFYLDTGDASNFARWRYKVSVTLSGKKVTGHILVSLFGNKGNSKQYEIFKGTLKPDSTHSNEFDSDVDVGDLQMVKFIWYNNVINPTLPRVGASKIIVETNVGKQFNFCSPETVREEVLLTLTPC

[1] = in vivo

Compound: CCCCCCCCCCC[C@@H](C[C@@H]1OC(=O)[C@H]1CCCCCC)OC(=O)[C@H](CC(C)C)NC=O [tetrahydrolipstatin, [2S-[2-α(R),3β]]-N-formyl-L-leucine 1-[(3-hexyl-4-oxo-2-oxetanyl)methyl]dodecyl ester]
- Average reduction of the lipids contained in food (pancreatic lipase): about one third
- Side effects [1]: steatorrhoea, anal exudation, abdominal pains, nausea and vomiting, or fat-soluble vitamin absorption reduction
